How the values were obtained:
[1] = test system: promoter region including the HSE sequence for HSP47; assay: Reporter protein expression suppression, stable transformant A (HSE/HSP47 promoter β-galactosidase); type: cell-based, Chinese hamster; conditions: heat shock 42° C. 90 min, relative to DMSO
Source text: A plasmid was produced in which a β-galactosidase gene was located downstream of a promoter region including the HSE sequence for HSP47. […] Chinese hamster ovary (CHO) cells were transfected with the plasmid to obtain stable transformant […]. These stable transformants were pre-treated with Compounds 101, 102 and 103 above and Compound C (1-acetyl-3-benzo-(1,3)dioxole-5-ylmethylene-pyrrolidin-2-one; this compound is represented by general formula (I) of the present invention wherein X is —CH2— and R^1 is acetyl) in a CO2 incubator at 37° C. for 60 min. Then, the transformants were subjected to a heat shock of 42° C. for 90 min, recovered at 37° C. for 2 hours, and incubated at a room temperature for 30 min with 4-methylumbelliferyl-β-D-galactoside as a substrate for the activity of β-galactosidase expressed in the cell. Then, the fluorescence was measured (excitation at 365 nm, emission at 450 nm). The amount of β-galactosidase expressed after a treatment with test compounds or the known HSF and HSP inhibitor quercetin as a control agent was divided by the amount of β-galactosidase expressed after a treatment with dimethylsulfoxide (DMSO) as a solvent control, thereby calculating the expression rate (%) as shown in Table 1.

SV40 early promoter = assay: Reporter protein expression suppression, stable transformant B (SV40 early promoter β-galactosidase); type: cell-based, Chinese hamster; conditions: heat shock 42° C. 90 min, relative to DMSO
HSP70 = assay: HSP expression induction suppression by 2-dimensional electrophoresis, HSP70; type: cell-based; design: key: ↑↑↑: Not Suppressed (Strongly Induced); ↓: Slightly Suppressed; ↓↓: Suppressed; ↓↓↓: Strongly Suppressed; conditions: 100 μM; COLO320DM cells; compared with DMSO control
Description: (§1) COLO320DM cells were pre-treated with Compounds 101, 102 and 103 at 37° C. for 60 min, followed by application of a heat shock at 42° C. for 90 min, and recovery at 37° C. for 2 hours. Then, the media were replaced with methionine-free media, and the cells were treated at 37° C. for 1 hour with ^35S-methionine to label newly synthesized proteins.
(§2) The cell lysate was obtained, subjected to an isoelectric focusing as the first dimension and then to an expansion by SDS-PAGE as the second dimension. Then, the gel was subjected to fluorography so as to compare between the amounts of HSP synthesized with and without heat induction. Comparison between the amounts of β-actin synthesized as an internal control with and without heat induction confirmed that the other proteins were normally synthesized.

[2] = Antidepressant effect in forced swimming test; type: in vivo; conditions: 100 mg/kg orally once, Wistar male rat; for No-Movement Period: 5-minute test; for Suppression Rate (%): versus physiological saline
Description: The experiment was conducted as a partial modification of the Porsolt, R. D. et al. method (Eur. J. Pharm., 47: 379, 1978). In particular, a Wistar male rat (5 weeks of age, weight: 130-150 g) was dropped into water (temperature: 25° C.) about 15 cm deep in a glass cylinder having an inner diameter of 18 cm and a height of 40 cm. The rat was taken out after 15 min, dried and put back into a home cage. […] One hundred mg/kg of each test compound, suspended in a physiological saline, was orally administered once before the 5-minute test so as to examine the antidepression effect. One hundred mg/kg of imipramine, a known antidepressant, as a control drug and 5 ml/kg of a physiological saline as a control were similarly orally administered. A shortened no-movement period was calculated as a suppression rate according to the following formula: Suppression Rate (%)=(E−F)/E×100 • E: No-Movement Period with Physiological Saline • F: No-Movement Period with Test Compound

HSP40 = assay: HSP expression induction suppression by 2-dimensional electrophoresis, HSP40; type: cell-based; design: key: ↑↑↑: Not Suppressed (Strongly Induced); ↓: Slightly Suppressed; ↓↓: Suppressed; ↓↓↓: Strongly Suppressed; conditions: 100 μM; COLO320DM cells; compared with DMSO control
Description: as §1, §2

β-actin = assay: 2-dimensional electrophoresis, β-actin internal control; type: cell-based; conditions: 100 μM; COLO320DM cells
Description: as §1, §2

HSP47 = assay: HSP expression induction suppression by 2-dimensional electrophoresis, HSP47; type: cell-based; design: key: ↑↑↑: Not Suppressed (Strongly Induced); ↓: Slightly Suppressed; ↓↓: Suppressed; ↓↓↓: Strongly Suppressed; conditions: 100 μM; COLO320DM cells; compared with DMSO control
Description: as §1, §2

COLO320DM cells = assay: Cell heat resistance suppression, colony formation assay; type: cell-based; conditions: 100 μM; pre-heating 42° C. 90 min, then 45° C. 60 min; all colonies counted
Description: COLO320DM cells were pre-treated with the above-described compounds at 37° C. for 60 min, followed by pre-heating by application of a heat shock of 42° C. for 90 min. The cells were further treated at 37° C. for 60 min. Then, the media were replaced respectively with compound-free media, and the cells were further incubated at 37° C. for 60 min. Thereafter, the cells were treated at 45° C. for 60 min, and cultured for about 10 days followed by measurement of the number of surviving cells as the number of colonies using a colony formation assay. […] The number of colonies formed without the treatment at 45° C. was substantially the same among all of the drugs.
The compounds of the present invention clearly confirmed to have the inhibitory effect on the acquisition of cell heat resistance, which is greater than that obtained with the known inhibitor quercetin. The surviving fraction was calculated according to the following formula: Surviving Fraction (%)=A/B×100 • A: Cell Survival Fraction With Treatment at 45° C. for 60 min • B: Cell Survival Fraction Without Treatment at 45° C. Cell Survival Fraction=C/D • C: Number of Surviving Cells • D: Number of Cells Seeded

HSP100 = assay: HSP expression induction suppression by 2-dimensional electrophoresis, HSP100; type: cell-based; design: key: ↑↑↑: Not Suppressed (Strongly Induced); ↓: Slightly Suppressed; ↓↓: Suppressed; ↓↓↓: Strongly Suppressed; conditions: 100 μM; COLO320DM cells; compared with DMSO control
Description: as §1, §2

[3] = test system: HSP70 (inducible type) mRNA; assay: Transcription suppression of HSP70 (inducible type) mRNA by Northern hybridization; type: cell-based; conditions: COLO320DM cells, heat shock 42° C. 90 min; for Transcription Amount of HSP70 (induced type): 100 μM, DMSO = 1.0
Description: COLO320DM cells (ATCC CCL-220) were pre-treated with Compounds 101, 102 and 103 in a CO2 incubator at 37° C. for 60 min using 10% FCS, DMEM medium (Gibco BRL), after which the cell was subjected to a heat shock of 42° C. for 90 min. Immediately thereafter, the treated cells were collected, and total RNA was extracted from the cells by using the acid guanidine thiocyanate phenol chloroform (AGPC) method. The total RNA was electrophoresed, transferred to a nylon filter, and the amounts of HSP mRNA were compared among experimental groups by using the Northern hybridization method. cDNA of HSP70 (inducible type) labeled with [α-^32P] dCTP was used as a probe, and cDNA of β-actin was used as an internal control. […] Table 2 provides comparison in the amount of transcription of HSP70 (inducible type) among cells which were subjected to a heat shock after treatment with the respective compounds, with the amount of induced transcription in a cell treated with the control solvent DMSO being 1.0.

HSP90 = assay: HSP expression induction suppression by 2-dimensional electrophoresis, HSP90; type: cell-based; design: key: ↑↑↑: Not Suppressed (Strongly Induced); ↓: Slightly Suppressed; ↓↓: Suppressed; ↓↓↓: Strongly Suppressed; conditions: 100 μM; COLO320DM cells; compared with DMSO control
Description: as §1, §2

[4] = test system: murine carcinoma cell (SCC VII); assay: Inhibitory effect on cancer heat resistance acquisition, tumor growth delay assay; type: in vivo, C3H/He mice
Description: A murine carcinoma cell (SCC VII) was implanted in the right leg of C3H/He mice (male, about 10 mice for each group), and the experiment was started when the tumor became about 1 cm in diameter. The tumor was heated by soaking the tumor site of each mouse under general anaesthesia into a constant temperature bath at 44° C. The inhibitory effect on the heat resistance acquisition by cancer cell was examined by a growth delay assay on the tumor. Two hundred mg/kg of each test compound, suspended in an olive oil, was intraperitoneally administered once 6 hours before the first heating. The first heating was performed for 10 minutes (H1), and the second heating was performed for 30 minutes (H2), with a recovery period of 8 hours at room temperature between the first heating and the second heating.

SMILES | Expression Rate (%) Transformant A ([1]; 5 μM) [%] | Expression Rate (%) Transformant A ([1]; 50 μM) [%] | Expression Rate (%) Transformant B (SV40 early promoter; 5 μM) [%] | Expression Rate (%) Transformant B (SV40 early promoter; 50 μM) [%] | HSP Induction by Heat Shock Treatment, HSP70 (HSP70) | No-Movement Period [2] [s] | Suppression Rate (%) [2] [%] | Expression Rate (%) Transformant A ([1]; 100 μM) [%] | HSP Induction by Heat Shock Treatment, HPS40 (HSP40) | β-actin synthesis by Heat Shock Treatment (internal control) (β-actin) | HSP Induction by Heat Shock Treatment, HSP47 (HSP47) | Surviving Fraction (%) (COLO320DM cells) | Expression Rate (%) Transformant B (SV40 early promoter; 100 μM) [%] | HSP Induction by Heat Shock Treatment, HSP100 (HSP100) | Transcription Amount of HSP70 (induced type) [3] | Suppression of mRNA transcription of HSP70 (in words) [3] | HSP Induction by Heat Shock Treatment, HSP90 (HSP90) | Mean days before tumor tripled ([4]; 200 mg/kg i.p. 6 hours before first heating, 44° C. 10 min (H1), 8 hr, 30 min (H2)) [days] | Mean days before tumor tripled ([4]; 200 mg/kg i.p., 44° C., 30 min heating) [days] | Mean days before tumor tripled ([4]; 200 mg/kg intraperitoneally once, no heating) [days]
CC(=O)N1CCC(=Cc2ccc3c(c2)OCO3)C1=O [Compound C, 1-acetyl-3-benzo-(1,3)dioxole-5-ylmethylene-pyrrolidin-2-one] | 40 | 11 | 91 | 88 | – | – | – | – | – | – | – | – | – | – | – | – | – | – | – | –
O=C1NCCC/C1=C\c1ccc2c(c1)OCO2 [Compound 103] | 47 | 10 | 93 | 62 | ↓↓↓ | 90 | 56 | 2 | ↓↓↓ | no change | ↓↓↓ | <1 | 46 | ↓↓↓ | 0.1 | specifically and significantly suppressed | ↓↓↓ | – | – | –
O=c1c(O)c(-c2ccc(O)c(O)c2)oc2cc(O)cc(O)c12 [Quercetin, quercetin, reference compound] | 99 | 25 | 96 | 82 | ↓ | – | – | 6 | ↓↓ | no change | ↓↓ | 6 | 58 | ↓ | 0.4 | – | ↓ | – | – | –
O=CN1CC/C(=C\c2ccc3c(c2)OCO3)C1=O [Compound 102] | 57 | 3 | 88 | 75 | ↓↓↓ | – | – | 0 | ↓↓↓ | no change | ↓↓↓ | <1 | 69 | ↓↓↓ | 0.04 | specifically and significantly suppressed | ↓↓↓ | 12.6 | 13.3 | 8.4
O=C1NCC/C1=C\c1ccc2c(c1)OCO2 [Compound 101] | 46 | 1 | 90 | 61 | ↓↓↓ | 145 | 29 | – | ↓↓↓ | no change | ↓↓↓ | <1 | – | ↓↓↓ | 0.03 | specifically and significantly suppressed | ↓↓↓ | – | – | –
CN(C)CCCN1c2ccccc2CCc2ccccc21 [Imipramine, imipramine, reference compound] | – | – | – | – | – | 180 | 12 | – | – | – | – | – | – | – | – | – | – | – | – | –

Source: patent US6903116B2, “Methods of treating cancer using a heat shock factor activity inhibitor” (Kaneka Corp., priority 1997, dated 2005)
